Eleven compounds from patent US8017767B2, “Sucralose composition” (Tate & Lyle Public Limited Company, priority 2000, dated 2011) can be followed below.

A short description of the data set: Accelerated stability test (50° C.) with pH stability test of sucralose sample solution. In kind it is physicochemical. The note with it: for Days to pH Failure: 50° C., WHIRLPAK polyethylene bags, failure = pH drop ≧1.0; for Days to pH Failure / Initial pH: Example 1, sodium acetate in mother liquor varied; for Initial pH: sample solution (5 g in 50 ml pH-adjusted water) at time zero; for Initial pH difference: sample solution vs pH-adjusted water at time zero, (−) pH drop, (+) pH gain, Example 1. The source says:
Label seven 6 oz. and seven 18 oz. WHIRLPAK® polyethylene bags with indelible marker for each batch being tested for stability. Accurately weigh 25 g±0.01 g of sucralose into each 6 oz. WHIRLPAK® polyethylene bag. Heat or impulse seal the 6 oz. bag to ensure air tightness. Cut off any excess polyethylene at the top of the bag above the seal. Place the 6 oz. sealed bag into the 18 oz. bag and heat or impulse seal the 18 oz. bag to ensure air tightness. Roll down the top of the 18 oz. bag above the seal and bend the metal ties to form hooks.
Place the prepared bags into an oven stabilized at 50° C.±0.5° C. by hanging them from racks by the bag hooks. The bags must be freely suspended and not touch anything. Record the time samples are placed into the oven.
The pH stability test is conducted on the sucralose at time zero (the day the samples are placed in the oven, before the sucralose is exposed to elevated temperature) and every 24 hours until the batch being tested fails the test.
Place approximately 100 ml of deionized water into a 150 ml beaker. Using 0.1 N hydrochloric acid and/or 0.1 N sodium hydroxide, adjust the pH of the water to be between 5.8 and 6.0. Record the pH reading.
Accurately weigh 5 g±0.001 g of the product to be tested and transfer it to a 50 ml volumetric flask. Dissolve and bring to the mark by adding pH-adjusted water. If the sample to be tested is one that has been exposed to heat, remove one bag of the batch being tested from the oven and allow it to cool to room temperature before opening and sampling.
Pour the solution into a 100 ml beaker containing a stir bar, and slowly stir the solution on a magnetic stirrer. Immerse the pH electrode in the sample, allow the pH reading to stabilize, and record the pH reading of the sample. If no pH drop is observed after all the bags have been tested, the experiment is void and the test must repeated with a larger number of bags.
Record (to one decimal place) the pH of both the pH-adjusted water used and the sample sucralose solution. Subtract the pH of the […]. Report the result as (−) for a pH drop and (+) for a pH gain, e.g.:
The sample fails the test if there is a pH drop of 1.0 pH unit or more. The pH stability of the batch is defined as the number of days until the pH drop between the sample solution and that of the pH adjusted water is ≧1.0.
Samples of sucralose were tested for stability using the above procedures, but using bags of different moisture permeability. All other experimental details were the same. The TYVEK®/polyethylene bags are permeable; the WHIRLPAK® bags are less permeable. The A8080 bag consists of aluminum foil laminated to low-density polyethylene, which makes it very impermeable to moisture.

Molecules are shown by their SMILES.

On to `OC[C@H]1O[C@H](O[C@]2(CCl)O[C@H](CCl)[C@@H](O)[C@@H]2O)[C@H](O)[C@@H](O)[C@H]1Cl` [Sample 1, 4,1′,6′-trichloro-4,1′,6′-trideoxy-galactosucrose], for which the “Days to pH Failure” value is on record as 6 Days, the “Initial pH” value was found to be 5.72 and the “Initial pH difference” value is −0.20.
As for `OC[C@H]1O[C@H](O[C@]2(CCl)O[C@H](CCl)[C@@H](O)[C@@H]2O)[C@H](O)[C@@H](O)[C@H]1Cl` [Sample 2, 4,1′,6′-trichloro-4,1′,6′-trideoxy-galactosucrose], the “Days to pH Failure” value is 6 Days, the “Initial pH” value is 5.73 and the “Initial pH difference” value is −0.19.
The matching figures for `OC[C@H]1O[C@H](O[C@]2(CCl)O[C@H](CCl)[C@@H](O)[C@@H]2O)[C@H](O)[C@@H](O)[C@H]1Cl` [Sample 3, 4,1′,6′-trichloro-4,1′,6′-trideoxy-galactosucrose]: 6 Days, 5.44 and −0.48.
`OC[C@H]1O[C@H](O[C@]2(CCl)O[C@H](CCl)[C@@H](O)[C@@H]2O)[C@H](O)[C@@H](O)[C@H]1Cl` [Sample 4, 4,1′,6′-trichloro-4,1′,6′-trideoxy-galactosucrose]: the “Days to pH Failure” value came out at 6 Days, the “Initial pH” value turned out to be 5.64 and the “Initial pH difference” value was −0.28.
For `OC[C@H]1O[C@H](O[C@]2(CCl)O[C@H](CCl)[C@@H](O)[C@@H]2O)[C@H](O)[C@@H](O)[C@H]1Cl` [Sample 5, 4,1′,6′-trichloro-4,1′,6′-trideoxy-galactosucrose], the “Days to pH Failure” value is reported as 6 Days, the “Initial pH” value came to 5.64 and the “Initial pH difference” value was −0.28.
The matching figures for `OC[C@H]1O[C@H](O[C@]2(CCl)O[C@H](CCl)[C@@H](O)[C@@H]2O)[C@H](O)[C@@H](O)[C@H]1Cl` [Sample 6, 4,1′,6′-trichloro-4,1′,6′-trideoxy-galactosucrose]: 4 Days, 5.53 and −0.39.
In the case of `OC[C@H]1O[C@H](O[C@]2(CCl)O[C@H](CCl)[C@@H](O)[C@@H]2O)[C@H](O)[C@@H](O)[C@H]1Cl` [Sample 7, 4,1′,6′-trichloro-4,1′,6′-trideoxy-galactosucrose], the “Days to pH Failure” value is recorded as 5 Days, the “Initial pH” value worked out at 5.70 and the “Initial pH difference” value is reported as −0.22.
Regarding `OC[C@H]1O[C@H](O[C@]2(CCl)O[C@H](CCl)[C@@H](O)[C@@H]2O)[C@H](O)[C@@H](O)[C@H]1Cl` [Sample 8, 4,1′,6′-trichloro-4,1′,6′-trideoxy-galactosucrose], the “Days to pH Failure” value is given as 5 Days, the “Initial pH” value is 5.19 and the “Initial pH difference” value was −0.73.
Turning to `OC[C@H]1O[C@H](O[C@]2(CCl)O[C@H](CCl)[C@@H](O)[C@@H]2O)[C@H](O)[C@@H](O)[C@H]1Cl` [Sample 9, 4,1′,6′-trichloro-4,1′,6′-trideoxy-galactosucrose], the “Days to pH Failure” value was found to be 7 Days, the “Initial pH” value is reported as 6.19 and the “Initial pH difference” value is “+0.23”.
In the case of `OC[C@H]1O[C@H](O[C@]2(CCl)O[C@H](CCl)[C@@H](O)[C@@H]2O)[C@H](O)[C@@H](O)[C@H]1Cl` [Sample 10, 4,1′,6′-trichloro-4,1′,6′-trideoxy-galactosucrose], the “Days to pH Failure” value is 5 Days, the “Initial pH” value was 5.90 and the “Initial pH difference” value was −0.05.
As to `OC[C@H]1O[C@H](O[C@]2(CCl)O[C@H](CCl)[C@@H](O)[C@@H]2O)[C@H](O)[C@@H](O)[C@H]1Cl` [Sample 11, 4,1′,6′-trichloro-4,1′,6′-trideoxy-galactosucrose], the “Days to pH Failure” value is 6 Days, the “Initial pH” value was found to be 6.05 and the “Initial pH difference” value is “+0.10”.
